In patent publication US9221809B2 (MERCK SHARP & DOHME CORP., priority 2011, dated 2015):
Structures can show the parent of a compound that is named as a salt.

Molecular target: IRAK4 (Homo sapiens (Human), UniProt Q9NWZ3)
Experiment: IRAK4 kinase activity, IMAP fluorescence polarization assay
Assay type: biochemical
Details: 100 μM ATP, 0.5 nM GST tagged IRAK4; read-out: IRAK4 IC50
Description: The kinase activity of IRAK4 is determined by its ability to catalyze the phosphorylation of a fluorescent polypeptide substrate. The extent of phosphorylation is measured using IMAP technology (Molecular Devices) where the phosphorylated fluorescent substrate binds to the large M(III)-based nanoparticles which reduces the rotational speed of the substrate and thus increases its fluorescent polarization (FP).
Assay Procedure: A 20 μl reaction mixture contains 10 mM TriHCl, pH 7.2, 0.5 nM GST tagged IRAK4 (SignalChem), 100 nM fluorescent peptide substrate (RP7030, Molecular Devices), 100 μM ATP, 1 mM DTT, 1 mM MgCl2, and 0.01% Tween 20. The reaction is initiated by the addition of ATP. After incubation for 30 minutes at 25° C., 60 μl of Progressive IMAP Reagent (Molecular Devices) is added to stop the reaction. Change in RP7030's FP is determined by a FP reader (Analyst HT, LJL BioSystems)

Chain of IRAK4 (Q9NWZ3 whole entry): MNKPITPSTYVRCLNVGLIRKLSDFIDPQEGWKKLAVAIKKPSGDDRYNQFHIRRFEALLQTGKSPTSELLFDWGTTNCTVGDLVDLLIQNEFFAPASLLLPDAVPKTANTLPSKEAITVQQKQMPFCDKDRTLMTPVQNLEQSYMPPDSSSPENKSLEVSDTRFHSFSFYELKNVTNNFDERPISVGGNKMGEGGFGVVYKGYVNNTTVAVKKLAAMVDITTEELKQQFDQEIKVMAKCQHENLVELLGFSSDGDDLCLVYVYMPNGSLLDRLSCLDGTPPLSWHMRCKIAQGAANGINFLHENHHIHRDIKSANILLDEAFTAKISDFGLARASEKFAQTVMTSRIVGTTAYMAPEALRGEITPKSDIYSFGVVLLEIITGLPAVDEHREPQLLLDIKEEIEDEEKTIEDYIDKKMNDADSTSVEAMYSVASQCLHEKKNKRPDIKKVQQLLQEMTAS

Row | Structure (SMILES) | IC50 [nM]
1 | C[C@@H]1CC[C@@H](Nc2nc(N3CCOCC3)[nH]c(=O)c2-c2ccc3ccccc3n2)CN1 (racemic) [Example 121, 6-(methylpiperidin-3-yl)amino-2-morpholino-5-(quinolin-2-yl)pyrimidin-4(3H)-one.HCl] | 38
2 | C[C@H]1CC[C@@H](Nc2nc(N3CCOCC3)[nH]c(=O)c2-c2ccc3ccccc3n2)CN1 (racemic) [Example 122, 6-(methylpiperidin-3-yl)amino-2-morpholino-5-(quinolin-2-yl)pyrimidin-4(3H)-one.HCl] | 541
3 | N[C@H]1CCCC[C@H]1Nc1cccc2sc(-c3c(N[C@@H]4CCCNC4)nc(N4CCOCC4)[nH]c3=O)nc12 (racemic) [Example 353, 5-[4-[(cis, rac)-(2-aminocyclohexyl)amino]-1,3-benzothiazol-2-yl]-2-(morpholin-4-yl)-6-[[(3R)-piperidin-3-yl]amino]-3,4-dihydropyrimidin-4-one] | 24
4 | O=c1[nH]c(NC2CCC2)nc(N[C@@H]2C[C@H](CO)[C@@H](O)[C@H]2O)c1-c1nc2ccccc2s1 [Example 1, 5-(Benzo[d]thiazol-2-yl)-2-(cyclobutylamino)-6-((1R,2S,3R,4R)-2,3-dihydroxy-4-(hydroxymethyl)cyclopentylamino)pyrimidin-4(3H)-one.HCl] | 20
5 | Nc1nc(N[C@@H]2C[C@H](CO)[C@@H](O)[C@H]2O)c(-c2nc3ccccc3s2)c(=O)[nH]1 [Example 2, 2-Amino-5-(benzo[d]thiazol-2-yl)-6-((1R,2S,3R,4R)-2,3-dihydroxy-4-(hydroxymethyl)cyclopentylamino)pyrimidin-4(3H)-one.HCl] | 694
6 | CC(C)Nc1nc(N[C@@H]2C[C@H](CO)[C@@H](O)[C@H]2O)c(-c2nc3ccccc3s2)c(=O)[nH]1 [Example 5, 5-(Benzo[d]thiazol-2-yl)-6-((1R,2S,3R,4R)-2,3-dihydroxy-4-(hydroxymethyl)cyclopentylamino)-2-(isopropylamino)pyrimidin-4(3H)-one.HCl] | 151
7 | O=c1[nH]c(N[C@@H]2C[C@H](CO)[C@@H](O)[C@H]2O)c(-c2nc3ccccc3s2)c(=O)[nH]1 [Example 7, 5-(Benzo[d]thiazol-2-yl)-6-((1R,2S,3R,4R)-2,3-dihydroxy-4-(hydroxymethyl)cyclopentylamino)pyrimidine-2,4(1H,3H)-dione.HCl] | 1490
8 | O=c1[nH]c(NC2CCOCC2)nc(N[C@@H]2C[C@H](CO)[C@@H](O)[C@H]2O)c1-c1nc2ccccc2s1 [Example 8, 5-(Benzo[d]thiazol-2-yl)-6-((1R,2S,3R,4R)-2,3-dihydroxy-4-(hydroxymethyl)cyclopentylamino)-2-(tetrahydro-2H-pyran-4-ylamino)pyrimidin-4(3H)-one.HCl] | 575
9 | O=c1[nH]c(NC2CC(F)(F)C2)nc(N[C@@H]2C[C@H](CO)[C@@H](O)[C@H]2O)c1-c1nc2ccccc2s1 [Example 9, 5-(Benzo[d]thiazol-2-yl)-2-(3,3-difluorocyclobutylamino)-6-((1R,2S,3R,4R)-2,3-dihydroxy-4-(hydroxymethyl)cyclopentylamino)pyrimidin-4(3H)-one.HCl] | 324
10 | CS(=O)(=O)N1CCC(Nc2nc(N[C@@H]3C[C@H](CO)[C@@H](O)[C@H]3O)c(-c3nc4ccccc4s3)c(=O)[nH]2)CC1 [Example 10, 5-(Benzo[d]thiazol-2-yl)-6-((1R,2S,3R,4R)-2,3-dihydroxy-4-(hydroxymethyl)cyclopentylamino)-2-(1-(methylsulfonyl)piperidin-4-ylamino)pyrimidin-4(3H)-one.HCl] | 545
11 | O=c1[nH]c(NC2COC2)nc(N[C@@H]2C[C@H](CO)[C@@H](O)[C@H]2O)c1-c1nc2ccccc2s1 [Example 11, 5-(Benzo[d]thiazol-2-yl)-6-((1R,2S,3R,4R)-2,3-dihydroxy-4-(hydroxymethyl)cyclopentylamino)-2-(oxetan-3-ylamino)pyrimidin-4(3H)-one.HCl] | 892
12 | O=c1[nH]c(N2CC3(COC3)C2)nc(N[C@@H]2C[C@H](CO)[C@@H](O)[C@H]2O)c1-c1nc2ccccc2s1 [Example 13, 5-(Benzo[d]thiazol-2-yl)-6-((1R,2S,3R,4R)-2,3-dihydroxy-4-(hydroxymethyl)cyclopentylamino)-2-(2-oxa-6-azaspiro[3.3]heptan-6-yl)pyrimidin-4(3H)-one.HCl] | 8.9
13 | CS(=O)(=O)N1CC2(CN(c3nc(N[C@@H]4C[C@H](CO)[C@@H](O)[C@H]4O)c(-c4nc5ccccc5s4)c(=O)[nH]3)C2)C1 [Example 14, 5-(Benzo[d]thiazol-2-yl)-6-((1R,2S,3R,4R)-2,3-dihydroxy-4-(hydroxymethyl)cyclopentylamino)-2-(6-(methylsulfonyl)-2,6-diazaspiro[3.3]heptan-2-yl)pyrimidin-4(3H)-one.HCl] | 5.6
14 | O=c1[nH]c(OC2CCC2)nc(N[C@@H]2C[C@H](CO)[C@@H](O)[C@H]2O)c1-c1nc2ccccc2s1 [Example 15, 5-(Benzo[d]thiazol-2-yl)-2-cyclobutoxy-6-((1R,2S,3R,4R)-2,3-dihydroxy-4-(hydroxymethyl)cyclopentylamino)pyrimidin-4(3H)-one.HCl] | 1690
15 | O=c1[nH]c(N2CC3(CNC3)C2)nc(N[C@@H]2C[C@H](CO)[C@@H](O)[C@H]2O)c1-c1nc2ccccc2s1 [Example 16, 5-(Benzo[d]thiazol-2-yl)-6-((1R,2S,3R,4R)-2,3-dihydroxy-4-(hydroxymethyl)cyclopentylamino)-2-(2,6-diazaspiro[3.3]heptan-2-yl)pyrimidin-4(3H)-one.HCl] | 6.5
16 | O=c1[nH]c(N2CCCCC2)nc(N[C@@H]2C[C@H](CO)[C@@H](O)[C@H]2O)c1-c1ccc2ccccc2n1 [Example 19, 6-((1R,2S,3R,4R)-2,3-Dihydroxy-4-(hydroxymethyl)cyclopentylamino)-2-(piperidin-1-yl)-5-(quinolin-2-yl)pyrimidin-4(3H)-one.HCl] | 23
17 | O=c1[nH]c(NC2CCC2)nc(N[C@@H]2C[C@H](CO)[C@@H](O)[C@H]2O)c1-c1ccc2ccccc2n1 [Example 20, 2-(Cyclobutylamino)-6-((1R,2S,3R,4R)-2,3-dihydroxy-4-(hydroxymethyl)cyclopentylamino)-5-(quinolin-2-yl)pyrimidin-4(3H)-one.HCl] | 19
18 | O=c1[nH]c(NC2CCC2)nc(N[C@@H]2C[C@H](CO)[C@@H](O)[C@H]2O)c1-c1ccccn1 [Example 21, 2-(Cyclobutylamino)-6-((1R,2S,3R,4R)-2,3-dihydroxy-4-(hydroxymethyl)cyclopentylamino)-5-(pyridin-2-yl)pyrimidin-4(3H)-one.HCl] | 590
19 | O=c1[nH]c(NC2CCC2)nc(N[C@@H]2C[C@H](CO)[C@@H](O)[C@H]2O)c1-c1nccs1 [Example 22, 2-(Cyclobutylamino)-6-((1R,2S,3R,4R)-2,3-dihydroxy-4-(hydroxymethyl)cyclopentylamino)-5-(thiazol-2-yl)pyrimidin-4(3H)-one.HCl] | 1110

Other lines, results leading:

Row | IC50 [nM] | Structure (SMILES)
20 | 847 | C[C@H]1CC[C@@H](Nc2nc(N3CCOCC3)[nH]c(=O)c2-c2nc3ccccc3s2)CN1 (racemic) [Example 123, 5-(benzo[d]thiazol-2-yl)-6((6-methylpiperidin-3-yl)amino)-2-morpholinopyrimidin-4(3H)-one.HCl]
21 | 114 | C[C@@H]1CC[C@@H](Nc2nc(N3CCOCC3)[nH]c(=O)c2-c2nc3ccccc3s2)CN1 (racemic) [Example 124, 5-(benzo[d]thiazol-2-yl)-6((6-methylpiperidin-3-yl)amino)-2-morpholinopyrimidin-4(3H)-one.HCl]
22 | 5400 | N[C@@H]1CCCC[C@H]1Nc1cccc2sc(-c3c(N[C@@H]4CCCNC4)nc(N4CCOCC4)[nH]c3=O)nc12 (racemic) [Example 352, 5-(4-[[(trans, rac)-2-aminocyclohexyl]amino]-1,3-benzothiazol-2-yl)-2-(morpholin-4-yl)-6-[[(3R)-piperidin-3-yl]amino]-3,4-dihydropyrimidin-4-one]
23 | 92 | O=c1[nH]c(NC2CCCC2)nc(N[C@@H]2C[C@H](CO)[C@@H](O)[C@H]2O)c1-c1nc2ccccc2s1 [Example 4, 5-(Benzo[d]thiazol-2-yl)-2-(cyclopentylamino)-6-((1R,2S,3R,4R)-2,3-dihydroxy-4-(hydroxymethyl)cyclopentylamino)pyrimidin-4(3H)-one.HCl]
24 | 636 | O=c1[nH]c(NC2CCCCC2)nc(N[C@@H]2C[C@H](CO)[C@@H](O)[C@H]2O)c1-c1nc2ccccc2s1 [Example 6, 5-(Benzo[d]thiazol-2-yl)-2-(cyclohexylamino)-6-((1R,2S,3R,4R)-2,3-dihydroxy-4-(hydroxymethyl)cyclopentylamino)pyrimidin-4(3H)-one.HCl]
25 | 25 | CS(=O)(=O)N1CCN(c2nc(N[C@@H]3C[C@H](CO)[C@@H](O)[C@H]3O)c(-c3nc4ccccc4s3)c(=O)[nH]2)CC1 [Example 12, 5-(Benzo[d]thiazol-2-yl)-6-((1R,2S,3R,4R)-2,3-dihydroxy-4-(hydroxymethyl)cyclopentylamino)-2-(4-(methylsulfonyl)piperazin-1-yl)pyrimidin-4(3H)-one.HCl]
26 | 9.5 | O=c1[nH]c(N2CCOCC2)nc(N[C@@H]2C[C@H](CO)[C@@H](O)[C@H]2O)c1-c1ccc2ccccc2n1 [Example 18, 6-((1R,2S,3R,4R)-2,3-Dihydroxy-4-(hydroxymethyl)cyclopentylamino)-2-morpholino-5-(quinolin-2-yl)pyrimidin-4(3H)-one.HCl]
27 | 1790 | O=c1[nH]c(NC2CCC2)nc(N[C@@H]2C[C@H](CO)[C@@H](O)[C@H]2O)c1-c1cscn1 [Example 23, 2-(Cyclobutylamino)-6-((1R,2S,3R,4R)-2,3-dihydroxy-4-(hydroxymethyl)cyclopentylamino)-5-(thiazol-4-yl)pyrimidin-4(3H)-one.HCl]
